Tests used:
ULK1 kinase = molecular target: T1, ULK1 kinase (Homo sapiens, UniProt O75385, E37A/K38A); assay: Biochemical assay for ULK1 (coupled pyruvate kinase/lactate dehydrogenase assay); details: 1 mM ATP, 0.1 nM ULK1; read-out: ULK1 (inhibition of biochemical activity), IC50
T1 construct: (residues 1-283; ID NO: 1); purchased Beryllium
T1 sequence (O75385 1-283 E37A/K38A): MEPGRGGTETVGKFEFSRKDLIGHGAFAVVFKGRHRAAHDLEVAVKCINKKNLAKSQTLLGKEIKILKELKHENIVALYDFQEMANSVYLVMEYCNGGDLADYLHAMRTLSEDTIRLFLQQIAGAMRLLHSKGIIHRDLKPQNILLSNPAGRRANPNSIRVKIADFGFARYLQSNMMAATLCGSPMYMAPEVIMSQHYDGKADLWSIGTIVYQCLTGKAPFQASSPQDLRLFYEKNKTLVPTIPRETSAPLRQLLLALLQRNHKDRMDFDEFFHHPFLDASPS
Protocol: Biochemical Assay for ULK1 (SEQ. ID NO: 1)
Activity of ULK1 kinase was determined spectroscopically using a coupled pyruvate kinase/lactate dehydrogenase assay that continuously monitors the ATP hydrolysis-dependent oxidation of NADH (e.g., Schindler et al. Science (2000) 289: 1938-1942). Assays were conducted in 384-well plates (100 μL final volume) using 0.1 nM ULK1 (from Beryllium), 0.075 mM peptide substrate (YANWLAASIYLDGKKK), 1.5 units pyruvate kinase, 2.1 units lactate dehydrogenase, 1 mM phosphoenol pyruvate, 0.28 mM NADH and 1 mM ATP in assay buffer (100 mM Tris, pH 7.5, 15 mM MgCl2, 0.5 mM DTT, 0.004% (w/v) BSA, and 0.004% Triton X-100). Inhibition of ULK1 was measured by adding serial diluted test compound (final assay concentration of 1% DMSO). A decrease in absorption at 340 nm was monitored continuously for 6 h at 30° C. on a multi-mode microplate reader (BioTek). The reaction rate was calculated using the 2-3 h time frame. The reaction rate at each concentration of compound was converted to percent inhibition using controls (i.e., reaction with no test compound and reaction with a known inhibitor) and IC50 values were calculated using software routines in Prism (GraphPad software).

[1] = test system: ULK kinase substrate ATG13 (pS318-ATG13) in A549 (KRAS mutant) cells; assay: pATG13 levels of mutant KRas A549 cells after treatment with ULK inhibitors in combination with trametinib (ELISA); format: cell-based, human
Protocol: Cellular Inhibition of ULK Kinase Substrate ATG13 Protein pATG13 Levels of Mutant KRas A549 Cells after Treatment with ULK Inhibitors in Combination with Trametinib
(§1) A549 (KRAS mutant) human lung cancer cells (6,000 cells/well) were added to a 384-well tissue-culture treated plate in 50 μL of pre-warmed DMEM medium supplemented with 10% characterized fetal bovine serum (Invitrogen, Carlsbad, CA), 100 units/mL penicillin G, and 100 μg/mL streptomycin and allowed to grow overnight at 37° C., 5% CO2, and 95% humidity. The following day, 10 μL of media containing trametinib or DMSO as a control was added to wells. The final concentration of trametinib in wells was 250 nM. A dose response of a test compound (0.6 μL per well) was added. DMSO (0.6 μL) was added to control wells. The plate was briefly shaken to mix wells and then incubated at 37° C. overnight. The next day, the media was aspirated and cells were washed with Dulbecco's Phosphate Buffered Saline (Gibco). Cells were lysed using MPER lysis buffer (Pierce, Rockford, IL) containing Halt Phosphatase and Protease Inhibitors (Pierce, Rockford, IL) and Phosphatase inhibitor cocktail 2 (Sigma, St. Louis, MO) at 4° C. for 10 min with shaking.
(§2) Cellular levels of phospho-Serine 318 ATG13 (pATG13) were measured via an ELISA method. Total ATG13 Antibody (Cell Signaling Cat #13273) was used to coat the wells. The plate was incubated at 4° C. overnight and washed with ELISA wash buffer (Biolegend Cat #421601). The wells were then blocked with assay diluent (Biolegend Cat #421203) for 1 h at rt. Plate wells were washed with ELISA wash buffer. Cell lysate was added to wells and incubated at rt for 2 h. Plate wells were washed with ELISA wash buffer. Biotinylated pS318-ATG13 antibody (Rockland Immunochemicals Cat #600-401-C49) was diluted in assay diluent and added to each well and incubated at rt for 1 h. Plate wells were washed with ELISA wash buffer. Streptavidin linked to horseradish peroxidase (Thermo Fisher Cat #21140) was diluted in assay diluent and added to each well and incubated at rt for 1 h. Plate wells were washed with ELISA wash buffer. High sensitivity TMB substrate (Biolegend Cat #421101) was added to each well and incubated at rt for 20 min. The reaction was stopped with 2N Sulfuric Acid. The plate was analyzed at on a plate reader measuring absorbance at 450 nm and 540 nm (background). Signal was calculated by first subtracting the background absorbance at 540 nm from the absorbance at 450 nm for each well. Next, the background corrected absorbance at 450 nm from blank wells was subtracted from test wells. Data was compared to control wells to determine % ATG13 phosphorylation. GraphPad Prism was used to calculate IC50 values.

[2] = test system: ULK kinase substrate ATG13 (pS318-ATG13) in MiaPaCa-2 cells; assay: pATG13 levels of mutant KRas MiaPaCa-2 cells after treatment with ULK inhibitors in combination with trametinib (ELISA); format: cell-based, human
Protocol: pATG13 Levels of Mutant KRas MiaPaCa-2 Cells after Treatment with ULK Inhibitors in Combination with Trametinib
as §1, with “MiaPaCa-2” for “A549 (KRAS mutant)”, “pancreatic” for “lung”, “(10000” for “(6,000”, “G,” for “G, and”, “streptomycin, and 2.5% Horse Serum” for “streptomycin”, “minutes” for “min”
as §2, with “2.0N sulfuric acid.” for “2N Sulfuric Acid.”

ULK2 kinase = molecular target: T2, ULK2 kinase (Homo sapiens, UniProt Q8IYT8); assay: Biochemical assay for ULK2 (coupled pyruvate kinase/lactate dehydrogenase assay); details: 1 mM ATP, 1 nM ULK2; read-out: ULK2 (inhibition of biochemical activity), IC50
T2 construct: (residues 1-306 with N-terminal GST and His tag; ID NO: 2); purchased Signal Chem U02-11G
T2 sequence (Q8IYT8 with tags, fused parts or gaps): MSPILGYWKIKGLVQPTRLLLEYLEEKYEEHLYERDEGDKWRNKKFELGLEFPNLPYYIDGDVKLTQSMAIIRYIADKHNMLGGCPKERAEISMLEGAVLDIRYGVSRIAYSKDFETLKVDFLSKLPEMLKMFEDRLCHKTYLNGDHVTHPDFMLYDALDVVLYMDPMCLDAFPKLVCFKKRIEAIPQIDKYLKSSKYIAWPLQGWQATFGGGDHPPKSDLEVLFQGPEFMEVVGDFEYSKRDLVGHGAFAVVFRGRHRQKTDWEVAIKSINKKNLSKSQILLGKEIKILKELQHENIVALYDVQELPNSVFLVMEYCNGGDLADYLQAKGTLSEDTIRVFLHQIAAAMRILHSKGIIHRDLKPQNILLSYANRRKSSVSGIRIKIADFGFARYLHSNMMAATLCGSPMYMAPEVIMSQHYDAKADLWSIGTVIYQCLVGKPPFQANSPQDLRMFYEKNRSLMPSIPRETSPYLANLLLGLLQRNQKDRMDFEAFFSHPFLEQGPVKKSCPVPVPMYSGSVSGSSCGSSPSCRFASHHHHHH
Protocol: Biochemical Assay for ULK2 (SEQ. ID NO: 2)
Activity of ULK2 kinase was determined spectroscopically using a coupled pyruvate kinase/lactate dehydrogenase assay that continuously monitors the ATP hydrolysis-dependent oxidation of NADH (e.g., Schindler et al. Science (2000) 289: 1938-1942). Assays were conducted in 384-well plates (100 μL final volume) using 1 nM ULK2 (Signal Chem U02-11G), 200 μM ULKtide, 1.5 units pyruvate kinase, 2.1 units lactate dehydrogenase, 1 mM phosphoenol pyruvate, 0.28 mM NADH and 1 mM ATP in assay buffer (100 mM Tris, pH 7.5, 15 mM MgCl2, 0.5 mM DTT, 0.1% octyl-glucoside, 0.002% (w/v) BSA, and 0.002% Triton X-100). Inhibition of ULK2 was measured by adding serial diluted test compound (final assay concentration of 1% DMSO). A decrease in absorption at 340 nm was monitored continuously for 6 h at 30° C. on a multi-mode microplate reader (BioTek). The reaction rate was calculated using the 2-3 h time frame. The reaction rate at each concentration of compound was converted to percent inhibition using controls (i.e., reaction with no test compound and reaction with a known inhibitor) and IC50 values were calculated by fitting a four-parameter sigmoidal curve to the data using Prism (GraphPad software).

LRRK2 kinase = molecular target: T3, LRRK2 kinase (Homo sapiens, UniProt Q5S007); assay: Biochemical assay for LRRK2 (coupled pyruvate kinase/lactate dehydrogenase assay); details: 26.4 nM LRRK2, 1 mM ATP; read-out: LRRK2 (inhibition of LRRK2 kinase activity, IC50)
T3 construct: (residues 970-2528; ID NO; 3); purchased Thermo Fisher
T3 sequence (Q5S007 with tags, fused parts or gaps): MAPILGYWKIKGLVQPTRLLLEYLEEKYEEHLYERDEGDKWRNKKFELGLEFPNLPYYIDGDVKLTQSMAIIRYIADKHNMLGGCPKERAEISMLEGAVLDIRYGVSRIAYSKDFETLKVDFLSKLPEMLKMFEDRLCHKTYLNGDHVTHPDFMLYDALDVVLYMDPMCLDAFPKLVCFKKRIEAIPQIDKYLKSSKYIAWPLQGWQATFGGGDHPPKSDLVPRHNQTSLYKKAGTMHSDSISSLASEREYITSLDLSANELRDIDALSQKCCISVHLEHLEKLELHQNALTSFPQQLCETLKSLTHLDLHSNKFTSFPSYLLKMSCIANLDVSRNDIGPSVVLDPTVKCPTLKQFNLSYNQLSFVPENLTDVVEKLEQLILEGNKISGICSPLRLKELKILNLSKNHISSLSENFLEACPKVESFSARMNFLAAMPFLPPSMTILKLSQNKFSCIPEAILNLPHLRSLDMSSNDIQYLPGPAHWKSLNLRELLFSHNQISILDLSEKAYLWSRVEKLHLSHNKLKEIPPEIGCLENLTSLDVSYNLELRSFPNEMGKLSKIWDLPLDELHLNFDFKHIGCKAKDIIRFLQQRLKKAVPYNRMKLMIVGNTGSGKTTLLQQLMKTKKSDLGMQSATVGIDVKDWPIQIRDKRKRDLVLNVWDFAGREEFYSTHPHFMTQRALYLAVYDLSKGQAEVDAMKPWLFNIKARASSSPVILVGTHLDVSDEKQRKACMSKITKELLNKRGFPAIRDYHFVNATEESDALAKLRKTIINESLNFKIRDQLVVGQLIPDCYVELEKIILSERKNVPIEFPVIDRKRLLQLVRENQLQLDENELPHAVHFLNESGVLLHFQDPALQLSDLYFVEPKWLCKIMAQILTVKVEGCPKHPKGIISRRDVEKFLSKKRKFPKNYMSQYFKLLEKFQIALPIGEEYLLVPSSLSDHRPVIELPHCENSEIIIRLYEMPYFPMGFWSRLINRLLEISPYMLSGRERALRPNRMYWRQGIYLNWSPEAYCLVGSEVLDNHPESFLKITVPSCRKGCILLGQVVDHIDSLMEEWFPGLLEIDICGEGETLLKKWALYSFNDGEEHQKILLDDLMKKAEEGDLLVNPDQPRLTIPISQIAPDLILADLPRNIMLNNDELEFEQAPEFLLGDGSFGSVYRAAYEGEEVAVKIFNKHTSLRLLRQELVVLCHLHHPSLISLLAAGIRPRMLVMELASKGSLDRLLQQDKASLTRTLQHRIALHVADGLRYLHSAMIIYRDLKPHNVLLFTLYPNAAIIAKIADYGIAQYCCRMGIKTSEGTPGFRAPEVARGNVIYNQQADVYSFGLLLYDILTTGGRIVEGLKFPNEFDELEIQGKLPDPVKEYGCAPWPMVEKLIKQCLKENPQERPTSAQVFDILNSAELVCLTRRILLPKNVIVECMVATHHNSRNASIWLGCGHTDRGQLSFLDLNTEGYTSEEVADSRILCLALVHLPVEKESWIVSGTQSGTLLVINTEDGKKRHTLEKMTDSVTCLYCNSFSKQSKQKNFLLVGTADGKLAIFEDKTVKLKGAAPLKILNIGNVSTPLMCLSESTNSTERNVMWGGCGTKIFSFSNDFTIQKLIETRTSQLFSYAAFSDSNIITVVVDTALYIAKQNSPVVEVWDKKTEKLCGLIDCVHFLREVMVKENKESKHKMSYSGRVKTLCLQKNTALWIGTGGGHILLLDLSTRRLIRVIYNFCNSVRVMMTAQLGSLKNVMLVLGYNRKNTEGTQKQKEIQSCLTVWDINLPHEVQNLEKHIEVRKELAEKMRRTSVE
Protocol: Biochemical Assay for LRRK2 (SEQ. ID NO. 3)
Activity of LRRK2 kinase was determined spectroscopically using a coupled pyruvate kinase/lactate dehydrogenase assay that continuously monitors the ATP hydrolysis-dependent oxidation of NADH (e.g., Schindler et al. Science (2000) 289: 1938-1942). Assays were conducted in 384-well plates (100 μL final volume) using 26.4 nM LRRK2 (Thermo Fisher), 0.1 mM peptide substrate (RLGRDKYKTLRQIRQ), 1.5 units pyruvate kinase, 2.1 units lactate dehydrogenase, 1 mM phosphoenol pyruvate, 0.28 mM NADH and 1 mM ATP in assay buffer (100 mM Tris, pH 7.5, 15 mM MgCl2, 0.5 mM DTT, 0.004% (w/v) BSA, and 0.004% Triton X-100). Inhibition of LRRK2 was measured by adding serial diluted test compound (final assay concentration of 1% DMSO). A decrease in absorption at 340 nm was monitored continuously for 6 h at 30° C. on a multi-mode microplate reader (BioTek). The reaction rate was calculated using the 2-3 h time frame. The reaction rate at each concentration of compound was converted to percent inhibition using controls (i.e., reaction with no test compound and reaction with a known inhibitor) and IC50 values were calculated using software routines in Prism (GraphPad software).

IC50 (ULK1 kinase) | IC50 [1] | IC50 [2] | IC50 (ULK2 kinase) | IC50 (LRRK2 kinase) | Structure (SMILES)
≤ 10 nM | ≤ 100 nM | ≤ 100 nM |  |  | CC/C(Nc1cnn(C2CCN(C(C)C)CC2)c1)=C1/C(=O)Nc2ccc(C(=O)NCC3CCC3)cc21 [Example 43]
10 to 100 nM | 100 to 300 nM | ≤ 100 nM |  |  | CC/C(Nc1cccc(N2CCN(C(C)C)CC2)c1)=C1/C(=O)Nc2ccc(C(=O)NC[C@H]3CCCO3)cc21 [Example 46]
100 to 500 nM | > 600 nM |  | 100 to 500 nM | ≤ 100 nM | CC/C(Nc1cnn(C(C)C)c1)=C1/C(=O)Nc2ccc(C(C)=O)cc21 [Example 177]
≤ 10 nM | ≤ 100 nM |  |  | ≤ 100 nM | CC/C(Nc1cnn(CC)c1)=C1/C(=O)Nc2ccc(C(=O)NCC3(C(F)(F)F)CC3)cc21 [Example 179]
≤ 10 nM | 100 to 300 nM |  |  | ≤ 100 nM | CC/C(Nc1cnn(C(F)F)c1)=C1/C(=O)Nc2ccc(C(=O)NCC3(C(F)(F)F)CC3)cc21 [Example 180]
≤ 10 nM | ≤ 100 nM |  |  | ≤ 100 nM | CC/C(Nc1cnn(CC(F)F)c1)=C1/C(=O)Nc2ccc(C(=O)NCC3(C(F)(F)F)CC3)cc21 [Example 181]

Source: patent US20240150368A1, “ULK INHIBITORS AND METHODS OF USE THEREOF” (Deciphera Pharmaceuticals, LLC, priority 2022, published 2024)
